Laboratory results from patent US8247211B2, “Glycopeptide antibiotics” (American Cyanamid Company, priority 2001, dated 2012).
≈ marks a conversion by molar mass, not a printed value.

Experiments:
[1] = system: Enterococcus sp.; experiment: In vitro antibacterial evaluation: minimum inhibitory concentration (MIC), broth dilution method; type: cell-based; conditions: broth dilution, 5×10^5 CFU/mL, 18 hours at 35° C.
Procedure, shortened: (§1)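 Susceptibility determined by NCCLS-recommended broth dilution (M7-A2), Muller-Hinton II […]. Concentration span 64-0.06 μg/mL, inoculum 5×10^5 CFU/mL. Isolates include strains resistant to methicillin, penicillin and/or vancomycin.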

[2] = system: Escherichia coli; experiment: as above; type: cell-based; conditions: 5×10^5 CFU/mL, 18 hours at 35° C.
Procedure, shortened: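 Values are minimum inhibitory concentrations, meaning the smallest antibiotic concentration that stops growth of the organism. They come from broth dilution in Muller-Hinton II […] per NCCLS guidance (M7-A2), using 5×10^5 CFU/mL and concentrations from 64 to 0.06 μg/mL.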

[3] = system: Staphylococcus sp.; experiment: as above; type: cell-based; conditions: for MIC Staphylococcus aureus (ATCC 29213): strain ATCC 29213; for MIC Staphylococcus aureus (GC 1131): strain GC 1131; for MIC Staphylococcus aureus (GC 3051): strain GC 3051; for MIC Staphylococcus aureus (GC 3053): strain GC 3053; for MIC Staphylococcus aureus (GC 4541): strain GC 4541; for MIC Staphylococcus aureus (GC 4542): strain GC 4542; for MIC Staphylococcus aureus-SMITH (GC 4543): strain GC 4543; for MIC Staphylococcus aureus (GC 4544): strain GC 4544; for MIC Staphylococcus aureus (GC 4545): strain GC 4545; for MIC Staphylococcus haemolyticus (GC 4546): strain GC 4546; for MIC Coagulase Negative Staphylococcus (GC 4547): strain GC 4547; for MIC Coagulase Negative Staphylococcus (GC 4548): strain GC 4548; for MIC Coagulase Negative Staphylococcus (GC 4549): strain GC 4549; for MIC Coagulase Negative Staphylococcus (GC 4551): strain GC 4551; for MIC Coagulase Negative Staphylococcus (GC 6257): strain GC 6257
Procedure, shortened: as §1

[4] = system: Streptococcus sp.; experiment: as above; type: cell-based; conditions: broth dilution, 5×10^5 CFU/mL, 18 hours at 35° C.
Procedure, shortened: as §1

[5] = system: Enterococcus faecalis (GC 6189), vancomycin resistant strain; experiment: Acute lethal infection in mice (ED50); type: in vivo; conditions: female CD-1 mice, intraperitoneal challenge, intravenous dose 30 min. after infection, 7 day survival ratios
Procedure, shortened: (§2)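 IP bacterial challenge, female CD-1 mice; inoculum lethal to untreated controls in 24-48 hr. IV dosing in saline or 5% dextrose 30 min post-infection, 5 mice/dose. ED50 from 7-day survival, 3 tests pooled.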

[6] = system: Staphylococcus aureus-SMITH (GC 4543); experiment: Acute lethal infection in mice (ED50); type: in vivo; conditions: female CD-1 mice, intraperitoneal challenge, intravenous dose 30 min. after infection, 7 day survival ratios
Procedure, shortened: as §2

[7] = broth dilution, 18 hours at 35° C.

## CC(c1ccccc1)C1NC(=O)CNC(=O)C(CO)NC(=O)C(C(O)C2CNC(=N)N2C2OC(CO)C(O)C(O)C2O)NC(=O)C(C(O)C2CNC(=N)N2)NC(=O)C(Cc2ccc(OC3OC(CO)C(OC4OC5COC(C6CC=CCC6)OC5C(O)C4O)C(O)C3O)cc2)NC1=O (stereo not drawn) [Example 115, Cyclo[glycyl-β-methylphenylalanyl-O-[4-O-[4,6-O-(cyclohex-3-en-1-ylmethylene)hexopyranosyl]hexopyranosyl]tyrosyl-3-(2-iminoimidazolidin-4-yl)seryl-3-(3-hexopyranosyl-2-iminoimidazolidin-4-yl)serylseryl]]
[1]
  MIC Enterococccus avium (GC 4558): 2 µg/mL (≈ 1.44 µM)
  MIC Enterococccus faecalis (ATCC 29212): 2 µg/mL (≈ 1.44 µM)
  MIC Enterococccus faecalis (GC 2691): 2 µg/mL (≈ 1.44 µM)
  MIC Enterococccus faecalis (GC 3059): 2 µg/mL (≈ 1.44 µM)
  MIC Enterococccus faecalis (GC 4552): 2 µg/mL (≈ 1.44 µM)
  MIC Enterococccus faecalis (GC 4553): 4 µg/mL (≈ 2.88 µM)
  MIC Enterococccus faecalis (GC 4554): 2 µg/mL (≈ 1.44 µM)
  MIC Enterococccus faecalis (GC 6189): 2 µg/mL (≈ 1.44 µM)
  MIC Enterococccus faecium (GC 2243): 2 µg/mL (≈ 1.44 µM)
  MIC Enterococccus faecium (GC 4556): 2 µg/mL (≈ 1.44 µM)
  MIC Enterococccus faecium (GC 4557): 2 µg/mL (≈ 1.44 µM)
  MIC Enterococcus faecalis (GC 2242): 2 µg/mL (≈ 1.44 µM)
[2]
  MIC Escherichia coli (ATCC 25922): 32 µg/mL (≈ 23.1 µM)
  MIC Escherichia coli (GC 4559): 64 µg/mL (≈ 46.1 µM)
  MIC Escherichia coli (GC 4560): 1 µg/mL (≈ 0.721 µM)
[3]
  MIC Staphylococcus aureus (ATCC 29213): 1 µg/mL (≈ 0.721 µM)
  MIC Staphylococcus aureus (GC 1131): 1 µg/mL (≈ 0.721 µM)
  MIC Staphylococcus aureus (GC 3051): 1 µg/mL (≈ 0.721 µM)
  MIC Staphylococcus aureus (GC 3053): 1 µg/mL (≈ 0.721 µM)
  MIC Staphylococcus aureus (GC 4541): 1 µg/mL (≈ 0.721 µM)
  MIC Staphylococcus aureus (GC 4542): 0.5 µg/mL (≈ 0.36 µM)
  MIC Staphylococcus aureus (GC 4544): 1 µg/mL (≈ 0.721 µM)
  MIC Staphylococcus aureus (GC 4545): 0.5 µg/mL (≈ 0.36 µM)
  MIC Staphylococcus haemolyticus (GC 4546): 0.5 µg/mL (≈ 0.36 µM)
  MIC Coagulase Negative Staphylococcus (GC 4547): 1 µg/mL (≈ 0.721 µM)
  MIC Coagulase Negative Staphylococcus (GC 4548): 0.5 µg/mL (≈ 0.36 µM)
  MIC Coagulase Negative Staphylococcus (GC 4549): 1 µg/mL (≈ 0.721 µM)
  MIC Coagulase Negative Staphylococcus (GC 4551): 1 µg/mL (≈ 0.721 µM)
  MIC Coagulase Negative Staphylococcus (GC 6257): 0.5 µg/mL (≈ 0.36 µM)
[3]; [7]
  MIC Staphylococcus aureus (ATCC 29213): 1 µg/mL (≈ 0.721 µM)
  MIC Staphylococcus aureus (GC 1131): 1 µg/mL (≈ 0.721 µM)
  MIC Staphylococcus aureus (GC 3051): 1 µg/mL (≈ 0.721 µM)
  MIC Staphylococcus aureus (GC 3053): 1 µg/mL (≈ 0.721 µM)
  MIC Staphylococcus aureus (GC 4541): 1 µg/mL (≈ 0.721 µM)
  MIC Staphylococcus aureus (GC 4542): 0.5 µg/mL (≈ 0.36 µM)
  MIC Staphylococcus aureus-SMITH (GC 4543): 1 µg/mL (≈ 0.721 µM)
  MIC Staphylococcus aureus (GC 4544): 1 µg/mL (≈ 0.721 µM)
  MIC Staphylococcus aureus (GC 4545): 0.5 µg/mL (≈ 0.36 µM)
  MIC Staphylococcus haemolyticus (GC 4546): 0.5 µg/mL (≈ 0.36 µM)
  MIC Coagulase Negative Staphylococcus (GC 4547): 1 µg/mL (≈ 0.721 µM)
  MIC Coagulase Negative Staphylococcus (GC 4548): 0.5 µg/mL (≈ 0.36 µM)
  MIC Coagulase Negative Staphylococcus (GC 4549): 1 µg/mL (≈ 0.721 µM)
  MIC Coagulase Negative Staphylococcus (GC 4551): 1 µg/mL (≈ 0.721 µM)
  MIC Coagulase Negative Staphylococcus (GC 6257): 0.5 µg/mL (≈ 0.36 µM)
[3]; 18 hours at 35° C.
  MIC Staphylococcus aureus-SMITH (GC 4543): 1 µg/mL (≈ 0.721 µM)
[4]
  MIC Streptococcus agalactiae (GC 4564): 0.25 µg/mL (≈ 0.18 µM)
  MIC Streptococcus pneumoniae (GC 1894): <0.06 µg/mL
  MIC Streptococcus pneumoniae (GC 4565): 0.12 µg/mL (≈ 0.0865 µM)
  MIC Streptococcus pneumonine (ATCC 6301): <0.06 µg/mL
  MIC Streptococcus pyogenes (GC 4563): 0.25 µg/mL (≈ 0.18 µM)
[5]
  median effective dose (ED50), Enterococcus faecalis (GC 6189): 0.36 mg/kg
[6]
  median effective dose (ED50), Staphylococcus aureus-SMITH (GC 4543): 0.23 mg/kg
